Reference: patent US7714009B2, “Nitrogen-containing fused heterocyclic compounds” (Takeda Pharmaceutical Company Limited, priority 2003, dated 2010)

Molecular target: T1, human CRF receptor (Homo sapiens, UniProt P34998)
T1 construct: expressed in transfected cells; host or cells: CHO cells (membrane fraction)
T1 sequence (P34998 24-415): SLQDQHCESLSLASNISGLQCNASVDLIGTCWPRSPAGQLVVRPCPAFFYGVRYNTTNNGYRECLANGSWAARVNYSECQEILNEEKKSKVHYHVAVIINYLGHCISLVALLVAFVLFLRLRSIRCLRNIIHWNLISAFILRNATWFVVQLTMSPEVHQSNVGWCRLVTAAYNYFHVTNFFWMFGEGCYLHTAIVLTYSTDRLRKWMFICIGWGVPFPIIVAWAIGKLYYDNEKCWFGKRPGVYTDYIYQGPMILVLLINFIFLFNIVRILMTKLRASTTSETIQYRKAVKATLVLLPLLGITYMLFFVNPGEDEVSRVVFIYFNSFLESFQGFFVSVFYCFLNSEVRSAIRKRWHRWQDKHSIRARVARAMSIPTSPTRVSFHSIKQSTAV
Assay: Measurement of Corticotropin-Releasing Factor (CRF) Binding Inhibitory Rate
Conditions: 1000 nM test compound; human CRF receptor expressing CHO cellular membrane fraction; 50 pM 125I-CRF; room temperature 1 hour
Method: Measurement of Corticotropin-Releasing Factor (CRF) Binding Inhibitory Rate
A receptor binding experiment was carried out using a human CRF receptor expressing CHO cellular membrane fraction and sheep CRF, [^125I]-tyr^0(^125I-CRF). 1000 nM of a test compound was incubated with 1 μg of human CRF receptor expressing CHO cellular membrane fraction and 50 pM of ^125I-CRF in a binding assay buffer (50 mM Tris-HCl, 5 mM EDTA, 10 mM MgCl2, 0.05% CHAPS, 0.1% BSA, 0.5 mM PMSF, […] pepstatin, 20 μg/ml leupeptin, pH 7.5). In addition, for measuring nonspecific binding (NSB), 0.1 μM unlabelled human Urocortin was incubated with 1 μg of human CRF receptor expressing CHO cellular membrane fraction and 50 pM of ^125I-CRF in a binding assay buffer. After a binding reaction was carried out at room temperature for 1 hour, the membrane was entrapped on a glass filter (UniFilter plate GF-C/Perkin Elmer) by suction filtration using a cell harvester (Perkin Elmer), and washed with ice-cooled 50 mM Tris-HCl (pH 7.5). After drying the glass filter, a liquid scintillation cocktail (Microscinti 0, Perkin Elmer) was added, and the radioactivity of ^125I-CRF remaining on a glass filter was measured using Topcount (Perkin Elmer).
(TB−SB)/(TB−NSB)×100 (SB: radioactivity when a compound is added, TB: maximum binding radioactivity, NSB: nonspecific binding radioactivity) was calculated to obtain a binding inhibitory rate under the presence of 1,000 nM or 100 nM of each test substances.

With `CCCN(CCC)c1cccc2nc(Nc3c(C)cc(C)cc3C)n(C)c12` [Example 26, N^2-Mesityl-1-methyl-N^7,N^7-dipropyl-1H-benzimidazole-2,7-diamine] as the compound, how does the inhibition at 1 µM read?
The inhibition at 1 µM was greater than 80%.

For `CCCN(CCC)c1cccc2nc(Nc3c(C)cc(C)cc3Cl)n(C)c12` [Example 42, N^2-(2-chloro-4,6-dimethylphenyl)-1-methyl-N^7,N^7-dipropyl-1H-benzimidazole-2,7-diamine], which inhibition at 1 µM is on record?
Its inhibition at 1 µM is greater than 80%.

How did the inhibition at 1 µM turn out when `CCCN(CCC)c1cccc2nc(Nc3cc(OC)c(OC)cc3C)n(C)c12` [Example 46, N^2-(4,5-dimethoxy-2-methylphenyl)-1-methyl-N^7,N^7-dipropyl-1H-benzimidazole-2,7-diamine] was run?
The inhibition at 1 µM was greater than 80%.

For `COc1ccc(N(c2cccc3nc(Nc4c(C)cc(Cl)cc4OC)n(C)c23)C(C)C)cc1` [Example 145, N^2-(4-chloro-2-methoxy-6-methylphenyl)-N^7-isopropyl-N^7-(4-methoxyphenyl)-1-methyl-1H-benzimidazole-2,7-diamine], which inhibition at 1 µM is on record?
Its inhibition at 1 µM is greater than 80%.

For `CCC1CCCCN1c1cccc2nc(Nc3c(C)cc(Br)cc3OC)n(C)c12` (centres unmarked) [Example 183, N-(4-Bromo-2-methoxy-6-methylphenyl)-7-(2-ethyl-1-piperidinyl)-1-methyl-1H-benzimidazol-2-amine], which inhibition at 1 µM is on record?
The inhibition at 1 µM was greater than 80%.
